Test results: publication PMC10302146, “Dual Anta-Inhibitors Targeting Protein Kinase CK1δ and A2A Adenosine Receptor Useful in Neurodegenerative Disorders” (Molecules, 2023)

Columns and labels:
N13 cell line = assay: Griess assay, nitrite production (antioxidant effect); format: cell-based; conditions: for antioxidant activity (Griess Reagent System): compound 1 7500 nM, incubated for 1 hr, vs. ZM241385 10 nM
Excerpt: In addition, since oxidative stress has received extensive attention as one important entry point in the pathogenesis of neurodegenerative diseases, the potential antioxidant profile of compounds 1 and 2 was investigated. Oxidative stress and neuroinflammation play synergistic roles in the promotion of neurodegenerative disease progression. During a CNS insult, there is an activation of microglial cells, which stimulate immune responses to instigate tissue repair. If the triggering cause of the immune response is eradicated, the immune response resolves, but if the initial stress persists, it will lead to an overproduction of neurotoxic factors such as chemokines and proinflammatory cytokines such as Tumor Necrosis Factor-α (TNF-α) and Interleukin-1β (IL-1β). This pathological state will lead to an overproduction of ROS and a state of oxidative stress. High levels of ROS inactivate or damage proteins, leading to cellular degeneration and death. Furthermore, ROS can activate proinflammatory pathways, further promoting a harmful environment for vulnerable neurons. In light of this, the potential antioxidant capacity of compounds was studied. […] The combination of anti-inflammatory and antioxidant activities makes compound 2 particularly appealing in counteracting two of the factors involved in the pathogenesis of neurodegenerative pathologies.
The N13 cell line was introduced into a 96-well UV-VIS transparent plate at a population of 1 × 10^4 cells per well in 98 μL of DMEM and incubated overnight. […] After 24 h of incubation, the media from each well was transferred into another 96-well plate, and then 50 µL of the sulphanilamide solution was placed into the wells. After 10 min of incubation at room temperature (rt), 50 µL of the NED solution was dispensed to all wells, and the plate was incubated at rt for an additional 5–10 min. After half an hour, absorbance was measured in the microplate reader GENiosPro using a 520–550 nm filter. All measurements were reproduced in 3–5 replicates. The nitric oxide formation was investigated by measuring nitrite (NO^2−), which is one of two primary breakdown products of NO. A nitrite standard reference curve was used for quantitative evaluation of the concentration of NO^2− in samples.

[1] = Everted gut sac absorption study (duodenum), HPLC-MS; format: in vitro ADME, rat; conditions: for Papp at 60 min: male, Wistar, rat
Description: Despite these remarkable assumptions, as many known kinase inhibitors are very often unable to cross lipid bilayer membranes, including the blood–brain barrier, and are, therefore, only suitable for non-central nervous system disorders, the ability of A2A/CK1δ double anta-inhibitors to cross the intestinal barrier was investigated. The experiment was performed using the everted gut sac model. The everted sac model is an efficient tool for studying in vitro drug absorption mechanisms, intestinal metabolism of drugs, the role of transporters in drug absorption, and investigating the role of intestinal enzymes during drug transport through the intestine. Compounds 1 and 2 were measured by liquid chromatography-mass spectrometry (LC-MS) in the mucosal and serosal media to provide a complete picture of the transport.
Compounds 1 and 2 were incubated in the duodenum for 60 min at concentrations of 10^−4, 10^−5, and 10^−6 M to evaluate their absorption.
The concentrations 10^−4, 10^−5, and 10^−6 M correspond to 24.6, 2.46, and 0.246 μg/mL of compound 1 and to 37.6, 3.76, and 0.376 μg/mL of compound 2 due to different molecular weights. Glucose was used to verify the integrity and viability of the gut sacs. Intestine sacs were exposed to the concentrations of compounds under study with respect to glucose-treated tissues. After incubation time, fluids from the mucosal (outside the sacs) and serosal (inside the sacs) sides of the rat gut sacs were collected and detected by HPLC-MS analysis. As expected, the amount of the absorbed analytes was concentration dependent even if compound 1 was much better absorbed with respect to compound 2 (Table 2 and Table 3). […] Data are reported as means ± SE (n = 4–5 experiments). The amount of compounds absorbed compared to the initial concentration is statistically different (p < 0.05).
Adult male Wistar rats (250–300 g; 11–12 weeks) were sacrificed by cervical dislocation, the small intestine was removed, and the duodenum segment was isolated and washed in TC199 medium. The intestine was divided into segments of 2–2.5 cm in length (4 for each animal), and each of them was everted on a glass rod of […] in diameter. All segments were closed at one end with a silk thread, filled with fresh oxygenated TC199 medium, and closed at the other end, creating a shut section (sac). Each sac was placed in a 50 mL beaker containing 9.0 mL of medium aerated with oxygen (O2/CO2, 95%:5%) and thermostated at 37 °C. A total of 1 mL of medium containing one of the samples at a concentration of 1 uM, 10 uM, or 100 uM was added. Each concentration was tested in duplicate in three different animals. In order to mimic the intestine peristalsis, gut sacs were incubated in an oscillating water bath (60 cycles/min). After 1h incubation, sacs were removed, washed in saline solution (0.9% NaCl), and wiped with filter paper. The content of each sac (serosal fluid) was collected into a 1.5 mL Eppendorf tube, and the sac was weighed before and after serosal fluid removal to calculate the exact volume contained inside. Samples were centrifuged for 15 min. at 13,500× g, and the supernatant aqueous solution was filtered through a microporous membrane (0.45 μm) for high-performance liquid chromatography (HPLC). The amount of compound 1 or 2 present inside (serosal fluid) and outside (mucosal fluid) of each sac was calculated by HPLC with diode-array detection (HPLC-DAD) analysis.
The obtained samples from the everted sac model experiment were centrifuged for 20 min at 13,500× g rpm, and the supernatant aqueous solution was filtered through a microporous membrane (0.45 μm pore size) for high-performance liquid chromatography-mass spectrometry analysis. LC-MS analysis was carried out using an HPLC Agilent Technologies 1260 Infinity II and a single quadrupole mass spectrometer. […]

human recombinant A1AR = biological target: human recombinant A1AR; set-up: method as in PMID 37259317; conditions: [3H]CCPA, membranes from CHO cells stably transfected; means ± standard errors; read-out: KiA1; cited from earlier work
[2] = duodenum, 60 min, initial 10^−4 M (24.6 μg/mL compound 1, 37.6 μg/mL compound 2)
[3] = duodenum, 60 min, initial 10^−5 M (2.46 μg/mL compound 1, 3.76 μg/mL compound 2)
[4] = duodenum, 60 min, initial 10^−6 M (0.246 μg/mL compound 1, 0.376 μg/mL compound 2)

SMILES: CN(C)c1nc(N)c2ncn(C3CCCC3)c2n1 [compound 1, 9-Cyclopentyl-N2,N2-dimethyl-9H-purine-2,6-diamine]
- antioxidant activity (Griess Reagent System) (N13 cell line; compound 2 4500 nM): no significant antioxidant activity
- Percentage of Drug Absorption (A%) ([1]; 10^−4 M, 60 min): 47%
- Percentage of Drug Retention (Ad%) ([1]; 10^−4 M, 60 min): 2%
- Percentage of Drug Absorption (A%) ([1]; 10^−5 M, 60 min): 42%
- Percentage of Drug Retention (Ad%) ([1]; 10^−5 M, 60 min): 10%
- Percentage of Drug Absorption (A%) ([1]; 10^−6 M, 60 min): 24%
- Percentage of Drug Retention (Ad%) ([1]; 10^−6 M, 60 min): 35%
- Absorbed Concentration [1, 2]: 11.5 µg/mL
- Absorbed Concentration [1, 3]: 1.03 µg/mL
- Absorbed Concentration [1, 4]: 0.059 µg/mL
- Papp at 60 min ([1]; 10^−4 M): 33 ×10⁻⁶ cm/s
- Papp at 60 min ([1]; 10^−5 M): 29.6 ×10⁻⁶ cm/s
- Papp at 60 min ([1]; 10^−6 M): 16.9 ×10⁻⁶ cm/s
- Ki (human recombinant A1AR): 3.34 ± 0.658 µM

SMILES: CN(C)c1nc(NCc2nc3ccccc3[nH]2)c2ncn(C3CCCC3)c2n1 [compound 2, N^6-methyl-(2-benzimidazolyl)-2-dimethyamino-9-cyclopentyladenine]
- amount of nitrite produced vs. control (N13 cell line; 4500 nM): inferior to that revealed in the control
- antioxidant activity (Griess Reagent System) (N13 cell line; compound 2 4500 nM): important antioxidant effect similar to that of the reference compound
- compensation of oxidative stress caused by the CK cocktail (N13 cell line; compound 2 4500 nM, ZM241385 10 nM): successfully compensated
- Papp (×10^−6 cm/s) ([1]; 10^−4 M, 60 min): 16.1 ×10^−6 cm/s
- Percentage of Drug Absorption (A%) ([1]; 10^−4 M, 60 min): 23%
- Percentage of Drug Retention (Ad%) ([1]; 10^−4 M, 60 min): 55%
- Papp (×10^−6 cm/s) ([1]; 10^−5 M, 60 min): 10.8 ×10^−6 cm/s
- Percentage of Drug Absorption (A%) ([1]; 10^−5 M, 60 min): 15%
- Percentage of Drug Retention (Ad%) ([1]; 10^−5 M, 60 min): 66%
- metabolic conversion in everted gut sac (HPLC analysis) ([1]; duodenum, 60 min): partially converted into its metabolite, compound 1
- Absorbed Concentration [1, 2]: 8.66 µg/mL
- Absorbed Concentration [1, 3]: 0.576 µg/mL
- Absorbed Concentration [1, 4]: not detectable
- Ki (human recombinant A1AR): 2.9 ± 0.648 µM
